Measured values taken from paper PMC7895991, “Calculating metalation in cells reveals CobW acquires Co^II for vitamin B12 biosynthesis while related proteins prefer Zn^II” (Nature Communications, 2021).

Tests used:
[1] = molecular target: T1, CobW (Rhodobacter capsulatus, UniProt D5AV10); assay: Co(II) titration UV-vis, nucleotide-induced metal site at […] nm; type: binding; conditions: 10 mM HEPES pH 7.0, 100 mM NaCl, 400 mM KCl, anaerobic, indirect read-out, no nucleotide constant
T1 construct: full length, untagged (natural His-rich region), initiator Met cleaved; E. coli BL21(DE3) pLysS; six cysteines
T1 sequence (D5AV10 2-348): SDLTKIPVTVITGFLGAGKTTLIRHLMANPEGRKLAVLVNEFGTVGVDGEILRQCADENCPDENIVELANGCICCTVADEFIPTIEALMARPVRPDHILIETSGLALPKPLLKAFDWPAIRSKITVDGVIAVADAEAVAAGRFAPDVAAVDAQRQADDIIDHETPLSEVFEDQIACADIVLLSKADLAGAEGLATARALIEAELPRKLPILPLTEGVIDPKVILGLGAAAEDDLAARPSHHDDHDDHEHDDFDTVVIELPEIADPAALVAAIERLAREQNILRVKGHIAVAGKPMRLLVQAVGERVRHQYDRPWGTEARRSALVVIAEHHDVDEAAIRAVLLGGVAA

[2] = molecular target: T1, CobW; assay: Co(II) titration UV-vis at […] nm and gel filtration/ICP-MS; type: binding; conditions: 10 mM HEPES pH 7.0, 100 mM NaCl, 400 mM KCl, anaerobic, with or without Mg(II) 2.7 mM, indirect read-out, no nucleotide constant
[3] = molecular target: T1, CobW; assay: GTP hydrolysis by anion-exchange chromatography, […] nm; type: biochemical; conditions: 20 uM CobW, 200 uM GTP, 2.7 mM Mg(II), 18 uM Co(II), HEPES pH 7.0, anaerobic; slow turnover

Nc1nc2c(ncn2[C@@H]2O[C@H](COP(=O)(O)OP(=O)(O)O)[C@@H](O)[C@H]2O)c(=O)[nH]1 [GDP]
Co(II) titration UV-vis, nucleotide-induced metal site at 339 nm ([1]; Mg(II) 2.7 mM): Mg^IIGDP-CobW, despite displaying identical absorbance features indicating the persistence of the cysteine-rich tetrahedral site

Nc1nc2c(ncn2[C@@H]2O[C@H](COP(=O)(O)OP(=O)(O)NP(=O)(O)O)[C@@H](O)[C@H]2O)c(=O)[nH]1 [GMPPNP]
Co(II) titration UV-vis at 339 nm and gel filtration/ICP-MS [2]: binding of guanine nucleotides to CobW promotes tight coordination of two metal ions

Nc1nc2c(ncn2[C@@H]2O[C@H](COP(=O)(O)OP(=O)(O)OP(=O)(O)O)[C@@H](O)[C@H]2O)c(=O)[nH]1 [GTP]
Co(II) titration UV-vis, nucleotide-induced metal site at 339 nm ([1]; Mg(II) 2.7 mM): binding of Mg^II and guanine nucleotides preassembles one distinct Co^II site in CobW | GTP hydrolysis by anion-exchange chromatography, 254 nm [3]: CobW-catalysed GTP hydrolysis is sufficiently slow such that nucleotides remain predominantly unhydrolysed

Nc1nc2c(ncn2[C@@H]2O[C@H](COP(=O)(O)OP(=O)(O)OP(O)(O)=S)[C@@H](O)[C@H]2O)c(=O)[nH]1 [GTPγS]
Co(II) titration UV-vis, nucleotide-induced metal site at 339 nm ([1]; with or without Mg(II) 2.7 mM): Equivalent experiments performed with GTP and an alternate stable analogue, GTPγS, generated indistinguishable spectra
